The values below come from patent publication US20240383908A1, “SYNTHESIS AND APPLICATION OF PHOSPHATASE DEGRADER” (HINOVA PHARMACEUTICALS INC., priority 2021, published 2024).

The structures appear in SMILES notation. A value given as a limit tells only on which side of the number the result lay.

The assay concerns the target T1, SHP2 protein (Homo sapiens, UniProt Q06124).
T1 sequence (Q06124 1-593): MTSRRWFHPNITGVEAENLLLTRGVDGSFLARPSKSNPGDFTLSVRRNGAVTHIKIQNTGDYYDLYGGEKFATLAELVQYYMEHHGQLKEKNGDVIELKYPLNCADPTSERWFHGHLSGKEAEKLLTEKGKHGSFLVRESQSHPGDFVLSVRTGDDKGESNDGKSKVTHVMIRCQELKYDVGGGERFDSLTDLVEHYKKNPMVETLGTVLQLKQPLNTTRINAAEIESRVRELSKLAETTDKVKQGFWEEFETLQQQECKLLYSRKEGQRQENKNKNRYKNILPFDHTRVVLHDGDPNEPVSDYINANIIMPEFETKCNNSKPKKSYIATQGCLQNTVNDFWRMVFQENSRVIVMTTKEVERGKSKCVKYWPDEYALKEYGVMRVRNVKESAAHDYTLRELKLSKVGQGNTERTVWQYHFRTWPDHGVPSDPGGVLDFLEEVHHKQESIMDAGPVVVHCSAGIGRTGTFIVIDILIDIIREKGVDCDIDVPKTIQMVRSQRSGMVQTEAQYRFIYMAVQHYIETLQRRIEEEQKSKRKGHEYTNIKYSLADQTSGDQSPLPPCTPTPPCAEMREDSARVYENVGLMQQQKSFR
Kind of assay: Degradation activity on SHP2 protein in MV-411 cells (Western blot, DC50). In kind it is cell-based. Also on record: endogenous in cells. As to conditions: MV411 cells, 24 hours, read-out: Degradation activity for differenct cell lines MV411 (DC50). As to the method: • MV-411 cell line (COBIER, CBP-60522) • FBS (GEMINI, Cat. No. 900-108) • 0.01M PBS (Biosharp, Cat. No. 162262) • IMDM (Hyclone, Cat. No. SH30228.01) • Penicillin-Streptomycin (Gibco, Cat. No. 15140122) • DMSO (Sigma, Cat. No. D5879) • Centrifuge Tube, 15 ml (Excell Bio, Cat. No. CS015-0001) • Cell Culture Dish, (WHB, Cat. No. CS016-0128) • 12-well cell culture cluster (Corning, Cat. No. 3513) • RIPA lysate buffer (Thermo, Cat. No. 89900) • Protein Loding Buffer (Beyotime, Cat. No. P0015L) • BCA Protein Assay Kit (EpiZyme, Cat. No. ZJ102) • SDS-PAGE Fast Preparation Kit (EpiZyme, Cat. No. PG112) • Anti-GAPDH (14C10) Rabbit mAb (CST, Cat. No. 2118L) • Anti-SHP2 rabbit mAb (CST, Cat. No. 37525) • Peroxidase Affinipure (HRP) Goat Anti-Rabbit IgG (Zen Bioscience, Cat. No. 511203) • TBST (Biosharp, Cat. No. BL601A) • ECL chemiluminescence kit (4A Biotech, Cat. No. 4AW011-200)
• (1) Cell culture medium: IMIDM medium+10% FBS+1% Pen Strep; • (2) PBS buffer: PBS powder was dissolved in 2 L of ultrapure water and sterilized; • (3) Cell lysate: RIPA lysate buffer is added with protease inhibitors at a ratio of 1:1000 before use.
(1) MV-411 cells were cultured in the cell culture medium, and then well-growing cells were selected and inoculated in a 12-well plate, with 1 mL/well and 1×10^6 cells/well. The plate was incubated overnight in a 5% CO2 cell incubator at 37° C.
(2) 10 mM storage solution of each drug was prepared using dimethylsulfoxide (DMSO). The stock solution was diluted gradually with DMSO before use, and then 1 μL of the compound solution was added to the cell culture well (to ensure that the DMSO concentration in the culture system was […]), so that the final drug concentration is 100 nM, 10 nM, 3 nM, 1 nM, 0.3 nM, and 0.1 nM. Two wells were set for each concentration. The plate was gently shaken and mixed. Additionally, negative control wells (containing an equal amount of DMSO) and positive control wells were included.
(3) After 24 hours of cultivation, the cells were lysed using RIPA cell lysate, and the proteins were extracted. The protein concentration was measured using a BCA assay kit. 5× concentrated protein buffer was loaded, heated at 100° C. for 5 min, and then the sample was stored at −20° C.
(4) For each well, 30 μg of protein was loaded to polyacrylamide gel for electrophoresis.
(5) The protein was transferred from polyacrylamide gel to PVDF membrane, and sealed at room temperature with 5% skimmed milk for 1 h, which was then incubated with the primary antibodies (Anti-SHP2 rabbit mAb and Anti-GAPDH rabbit mAb) at 4° C. overnight. The membrane was washed three times with TBST solution, 10 minutes for each time. After that, the membrane was incubated with the secondary antibodies (horseradish peroxidase labeled goat anti-rabbit IgG) at room temperature for 2 h, and then washed three times with TBST solution, 10 minutes for each time, followed by exposure.
(6) The images were analyzed with Image J grayscale, and the degradation ratio of protein bands in the test group was calculated, based on the negative control group (DMSO) (100%).
(7) Using the Dose-response-inhibition equation in the data processing software GraphPad Prism 8, the DC50 value was obtained (which represents the drug concentration corresponding to 50% degradation of the target protein).
Finally, ECL detection solution was added for color development, and photos were taken with an automatic chemiluminescence instrument, so as to collect images and analyze them.
For orientation: In western blotting, separated proteins are transferred to a membrane and probed.
Broadly, the DC50 is the concentration at which degradation of the target reaches its halfway point. Take `Cc1nc2cccc(NC(=O)CCCCCCCCN3CCN(C(=O)CCC(=O)Nc4cccc(Sc5cnc(N6CCC(C)(N)CC6)cn5)c4)CC3)c2c(=O)n1C1CCC(=O)NC1=O` (stereo not drawn) [Compound 35]: the DC50 is over 1 µM.
For `Cc1ncsc1-c1ccc([C@H](C)NC(=O)[C@@H]2C[C@@H](O)CN2C(=O)[C@@H](NC(=O)CCCCCCCCCCN2CCC(C(=O)Nc3cccc(Sc4cnc(N5CCC(C)(N)CC5)cn4)c3)CC2)C(C)(C)C)cc1` [Compound 36], the DC50 is over 1 µM.
The value for `CC1(N)CCN(c2cnc(Sc3cccc(NC(=O)C4CCN(CCCCCCCCCCC(=O)NCc5ccc6c(c5)CN(C5CCC(=O)NC5=O)C6=O)CC4)c3)cn2)CC1` (stereo not drawn) [Compound 37] was over 1 µM; that for `CC1(N)CCN(c2cnc(Sc3cccc(NC(=O)[C@@H]4C[C@H]4C(=O)N4CC5(CN(CCCCCCCC(=O)NCc6ccc7c(c6)CN(C6CCC(=O)NC6=O)C7=O)C5)C4)c3)cn2)CC1` (stereo partly drawn) [Compound 38] was under 0.1 µM; that for `Cc1ncsc1-c1ccc([C@H](C)NC(=O)[C@@H]2C[C@@H](O)CN2C(=O)[C@@H](NC(=O)CCCCCCCN2CC3(C2)CN(C(=O)[C@@H]2C[C@H]2C(=O)Nc2cccc(Sc4cnc(N5CCC(C)(N)CC5)cn4)c2)C3)C(C)(C)C)cc1` [Compound 39] was under 0.1 µM.
Take `CC1(N)CCN(c2cnc(Sc3cccc(NC(=O)CCCCCCCCCCC(=O)NCc4ccc5c(c4)CN(C4CCC(=O)NC4=O)C5=O)c3)cn2)CC1` (stereo not drawn) [Compound 40]: the DC50 was under 0.1 µM.
Turning to `CC1(N)CCN(c2cnc(Sc3cccc(NC(=O)CCCCCCCCCCCCC(=O)NCc4ccc5c(c4)CN(C4CCC(=O)NC4=O)C5=O)c3)cn2)CC1` (stereo not drawn) [Compound 41], the DC50 was over 1 µM.
In the case of `CC1(N)CCN(c2cnc(Sc3cccc(NC(=O)CCCCCCCCCCCCCCC(=O)NCc4ccc5c(c4)CN(C4CCC(=O)NC4=O)C5=O)c3)cn2)CC1` (stereo not drawn) [Compound 42], the DC50 is over 1 µM.
`CC1(N)CCN(c2cnc(Sc3cccc(NC(=O)C4CN(CCCCCCCCCCC(=O)NCc5ccc6c(c5)CN(C5CCC(=O)NC5=O)C6=O)C4)c3)cn2)CC1` (stereo not drawn) [Compound 43]: the DC50 is over 1 µM.
As to `Cc1ncsc1-c1ccc([C@H](C)NC(=O)[C@@H]2C[C@@H](O)CN2C(=O)[C@@H](NC(=O)CCCCCCCCCCN2CC(C(=O)Nc3cccc(Sc4cnc(N5CCC(C)(N)CC5)cn4)c3)C2)C(C)(C)C)cc1` [Compound 44], the 50% degradation concentration (DC50) lay in the range of 0.1 to 1 µM.
Take `CC1(N)CCN(c2cnc(Sc3cccc(NC(=O)CCN4CC5(CCN(CCCCCC(=O)NCc6cccc7c6CN(C6CCC(=O)NC6=O)C7=O)C5)C4)c3)cn2)CC1` (stereo not drawn) [Compound 45]: the DC50 lay within 0.1 to 1 µM.
For `Cc1ncsc1-c1ccc([C@H](C)NC(=O)[C@@H]2C[C@@H](O)CN2C(=O)[C@@H](NC(=O)c2cnc(N3CCN(CCCCCCCCC(=O)Nc4cccc(Sc5cnc(N6CCC(C)(N)CC6)cn5)c4)CC3)nc2)C(C)(C)C)cc1` [Compound 47], the DC50 was under 0.1 µM.
For the molecule `Cc1ncsc1-c1ccc([C@H](C)NC(=O)[C@@H]2C[C@@H](O)CN2C(=O)[C@@H](NC(=O)CCCCCCCCCCC(=O)Nc2cccc(Sc3cnc(N4CCC(C)(N)CC4)cn3)c2)C(C)(C)C)cc1` [Compound 49], the DC50 was under 0.1 µM.
Turning to `Cc1ncsc1-c1ccc([C@H](C)NC(=O)[C@@H]2C[C@@H](O)CN2C(=O)[C@@H](NC(=O)CCCCCCCCCCCCC(=O)Nc2cccc(Sc3cnc(N4CCC(C)(N)CC4)cn3)c2)C(C)(C)C)cc1` [Compound 50], the DC50 was under 0.1 µM.
Take `Cc1ncsc1-c1ccc([C@H](C)NC(=O)[C@@H]2C[C@@H](O)CN2C(=O)[C@@H](NC(=O)CCCCCCCCCCCCCCC(=O)Nc2cccc(Sc3cnc(N4CCC(C)(N)CC4)cn3)c2)C(C)(C)C)cc1` [Compound 51]: the DC50 is under 0.1 µM.
The value for `Cc1ncsc1-c1ccc([C@H](C)NC(=O)[C@@H]2C[C@@H](O)CN2C(=O)[C@@H](NC(=O)CCCCCCCCC(=O)Nc2cccc(Sc3cnc(N4CCC(C)(N)CC4)cn3)c2)C(C)(C)C)cc1` [Compound 52] was under 0.1 µM; that for `CC1(N)CCN(c2cnc(Sc3cccc(NC(=O)CCCCCCCCC(=O)NCc4ccc5c(c4)CN(C4CCC(=O)NC4=O)C5=O)c3)cn2)CC1` (stereo not drawn) [Compound 53] was over 1 µM; that for `Cc1ncsc1-c1ccc([C@H](C)NC(=O)[C@@H]2C[C@@H](O)CN2C(=O)[C@@H](NC(=O)CCCCCCCCN2CCN(C(=O)/C=C/C(=O)Nc3cccc(Sc4cnc(N5CCC(C)(N)CC5)cn4)c3)CC2)C(C)(C)C)cc1` [Compound 54] was under 0.1 µM.
To `Cc1ncsc1-c1ccc([C@H](C)NC(=O)[C@@H]2C[C@@H](O)CN2C(=O)[C@@H](NC(=O)CCCCCCCCCC(=O)Nc2cccc(Sc3cnc(N4CCC(C)(N)CC4)cn3)c2)C(C)(C)C)cc1` [Compound 56] belongs over 1 µM.
For the molecule `CC1(N)CCN(c2cnc(Sc3cccc(NC(=O)CCCCCCCCCC(=O)NCc4ccc5c(c4)CN(C4CCC(=O)NC4=O)C5=O)c3)cn2)CC1` (stereo not drawn) [Compound 57], the DC50 is over 1 µM.
For the molecule `Cc1ncsc1-c1ccc([C@H](C)NC(=O)[C@@H]2C[C@@H](O)CN2C(=O)[C@@H](NC(=O)CCCCCCCCCCCC(=O)Nc2cccc(Sc3cnc(N4CCC(C)(N)CC4)cn3)c2)C(C)(C)C)cc1` [Compound 58], the DC50 was in the range of 0.1 to 1 µM.
To `Cc1ncsc1-c1ccc([C@H](C)NC(=O)[C@@H]2C[C@@H](O)CN2C(=O)[C@@H](NC(=O)c2cnc(N3CCN(CCCCCCCCC(=O)Nc4cccc(Sc5cnc(N6CCC(C)(C(N)=O)CC6)cn5)c4)CC3)nc2)C(C)(C)C)cc1` [Compound 60] belongs over 1 µM; to `CC1(C(N)=O)CCN(c2cnc(Sc3cccc(NC(=O)CCCCCCCCN4CCN(c5ncc(C(=O)NCc6cccc7c6CN(C6CCC(=O)NC6=O)C7=O)cn5)CC4)c3)cn2)CC1` (stereo not drawn) [Compound 61], over 1 µM.
Regarding `Cc1ncsc1-c1ccc([C@H](C)NC(=O)[C@@H]2C[C@@H](O)CN2C(=O)[C@@H](NC(=O)c2ccc(N3CCN(CCCCCCCCC(=O)Nc4cccc(Sc5cnc(N6CCC(C)(N)CC6)cn5)c4)CC3)nn2)C(C)(C)C)cc1` [Compound 62], the DC50 lay within 0.1 to 1 µM.
In the case of `CC1(N)CCN(c2cnc(Sc3cccc(NC(=O)CCN4CC5(CCN(c6ncc(C(=O)NCc7ccc8c(c7)CN(C7CCC(=O)NC7=O)C8=O)cn6)C5)C4)c3)cn2)CC1` (stereo not drawn) [Compound 65], the DC50 was under 0.1 µM.
Regarding `Cc1ncsc1-c1ccc([C@H](C)NC(=O)[C@@H]2C[C@@H](O)CN2C(=O)[C@@H](NC(=O)c2cnc(N3CCN(CCOCCOCC(=O)Nc4cccc(Sc5cnc(N6CCC(C)(N)CC6)cn5)c4)CC3)nc2)C(C)(C)C)cc1` [Compound 66], the DC50 is under 0.1 µM.
To `CC1(N)CCN(c2cnc(Sc3cccc(NC(=O)COCCOCCN4CCN(c5ncc(C(=O)NCc6ccc7c(c6)CN(C6CCC(=O)NC6=O)C7=O)cn5)CC4)c3)cn2)CC1` (stereo not drawn) [Compound 67] belongs over 1 µM.
